In patent US20260190612A1, “LIGHT-EMITTING DEVICE” (SEMICONDUCTOR ENERGY LABORATORY CO., LTD., priority 2022, published 2026):
In brackets after ≈: the same amount, converted by molar mass.

Test: solubility of the first organic compound in water

solubility | Structure (SMILES)
18 to 22 µg/mL (≈ 39.7 to 48.5 µM) | c1ccc2c(c1)-c1ccccc1C21c2ccccc2-c2ccc(N3CCCN4CCCN=C43)cc21 [2hppSF, 1-(9,9′-spirobi[9H-fluoren]-2-yl)-1,3,4,6,7,8-hexahydro-2H-pyrimido[1,2-a]pyrimidine]
< 2.3 µg/mL | CC(C)(C)c1ccc2c(c1)C1(c3ccccc3-c3ccc(N4CCCN5CCCN=C54)cc31)c1cc(C(C)(C)C)ccc1-2 [2′,7′tBu-2hppSF, 1-(2′,7′-di-tert-butyl-9,9′-spirobi[9H-fluoren]-2-yl)-1,3,4,6,7,8-hexahydro-2H-pyrimido[1,2-a]pyrimidine]
230 to 390 µg/mL (≈ 389 to 660 µM) | c1ccc2c(c1)-c1ccccc1C21c2cc(N3CCCN4CCCN=C43)ccc2-c2ccc(N3CCCN4CCCN=C43)cc21 [2,7hpp2SF, 1,1′-(9,9′-spirobi[9H-fluorene]-2,7-diyl)bis(1,3,4,6,7,8-hexahydro-2H-pyrimido[1,2-a]pyrimidine)]
